In patent publication US20230263748A1, “APPLICATION OF BENFLUMETOL AND DERIVATIVES THEREOF IN TREATMENT OF CORONAVIRUS INFECTION” (ACADEMY OF MILITARY MEDICAL SCIENCES, priority 2020, published 2023):
Read-outs that look alike come from different tables or passages of the source.

How the values were obtained:
Vero E6 cells = experiment: Detection of drug cytotoxicity by CCK-8 kit; format: cell-based; details: for Cell viability (% of negative control): Vero E6, 48 h
Protocol: The detection of drug cytotoxicity was performed by CCK-8 kit (Beoytime). Specific steps were as follows: • (1) 1×10^4 Vero E6 (ATCC) cells were inoculated in a 96-well plate and cultured at 37° C. for 8 hours. • (2) The drug was diluted with DMSO to obtain a stock solution with an appropriate concentration, and then diluted with MEM medium (purchased from Gibco, Cat. No. 10370021) containing 2% FBS (purchased from Gibco, Cat. No. 16000044) to the same concentration as that for the drug treatment. The original medium in the 96-well plate was discarded, 100 μL of drug-containing MEM medium was added to the cells, and three replicate wells were set for each concentration. Negative control (adding DMSO and medium to the cell wells, without adding drug) and blank control (no cells, adding DMSO and medium) were set. After the drug was added, the cells were cultured at 37° C. for 48 hours. • (3) 20 μL of CCK-8 solution (Beoytime) was added to the wells to be tested, mixed gently without generating air bubbles, and incubation was continued at 37° C. for 2 hours. OD450 was read on a microplate reader (purchased from Molecular Devices, model: SpectraMax M5), and cell viability was calculated:
Cell viability (%)=(A(drug treatment group)−A(blank control))/(A(negative control)−A(blank control))×100% • wherein A represents reading of microplate reader.

SARS-CoV-2 = format: cell-based; details: for Viral genome copy number (MOI = 0.05): supernatant

CCCCN(CCCC)CC(O)c1cc(Cl)cc2c1-c1ccc(Cl)cc1/C2=C/c1ccc(Cl)cc1 (centres unmarked) [benflumetol]
Cell viability (% of negative control) (Vero E6 cells; 0.78 μM): 92.88% | Cell viability (% of negative control) (Vero E6 cells; 1.56 μM): 94.55% | Cell viability (% of negative control) (Vero E6 cells; 3.13 μM): 96.69% | Cell viability (% of negative control) (Vero E6 cells; 6.25 μM): 106.70% | Cell viability (% of negative control) (Vero E6 cells; 12.5 μM): 108.69% | Cell viability (% of negative control) (Vero E6 cells; 25 μM): 113.54% | Cell viability (% of negative control) (Vero E6 cells; 50 μM): 115.52% | Cell viability (% of negative control) (Vero E6 cells; 100 μM): 122.12% | Toxic effect on the cells (in words) (Vero E6 cells; all test concentrations): no toxic effect on the cells at all concentrations | Viral genome copy number (MOI = 0.05) (SARS-CoV-2; 3.13 μM, Vero E6 cells, 48 h after infection): 125717580 | Viral genome copy number (MOI = 0.05) (SARS-CoV-2; 6.25 μM, Vero E6 cells, 48 h after infection): 87462582 | Viral genome copy number (MOI = 0.05) (SARS-CoV-2; 12.5 μM, Vero E6 cells, 48 h after infection): 87790130 | Viral genome copy number (MOI = 0.05) (SARS-CoV-2; 25 μM, Vero E6 cells, 48 h after infection): 48801530 | Viral genome copy number (MOI = 0.05) (SARS-CoV-2; 50 μM, Vero E6 cells, 48 h after infection): 20512679 | Viral genome copy number (MOI = 0.05) (SARS-CoV-2; 100 μM, Vero E6 cells, 48 h after infection): 2927366 | Inhibition of viral RNA load on cells, dose dependence (in words) (SARS-CoV-2; Vero E6 cells, 48 h after infection, FIG. 1): the inhibitory activity was dose-dependent | Inhibition of replication of the SARS-CoV-2 virus genome in the infection supernatant (in words) (SARS-CoV-2; at 100 μM, 50 μM and 25 μM): effectively inhibit the replication of the SARS-CoV-2 virus genome
